Consider seven molecules from patent US9023857B2, “Substituted 6-(2-aminobenzylamino)purine derivatives, their use as medicaments and preparations containing these compounds” (Univerzita Palackeho V Olomouci, priority 2009, dated 2015).

Some results are limits rather than exact numbers.

The subject of data set [1] is human erythroleukaemia K562. The data set can be described thus: In vitro cytotoxic activity (Calcein AM, 72 hours), K562. The settings on record: K562, 72 h, read-out: Cytotoxicity IC50 K-562.
The target in the next data set is CDK2/cyclin E (Homo sapiens, UniProt P24941). The data set can be described thus: CDK inhibition assay, CDK2/cyclin E.
The subject of the next data set is breast carcinoma MCF7. The data set can be described thus: In vitro cytotoxic activity (Calcein AM, 72 hours), MCF7. To be noted: Homo sapiens, MCF7, 72 h, read-out: Cytotoxicity IC50 MCF7.
For a further data set, the target named is CDK1/cyclin B (Homo sapiens, UniProt P06493). The data set can be described thus: CDK inhibition assay, CDK1/cyclin B.
Chain of CDK1/cyclin B (P06493 whole entry, species assumed): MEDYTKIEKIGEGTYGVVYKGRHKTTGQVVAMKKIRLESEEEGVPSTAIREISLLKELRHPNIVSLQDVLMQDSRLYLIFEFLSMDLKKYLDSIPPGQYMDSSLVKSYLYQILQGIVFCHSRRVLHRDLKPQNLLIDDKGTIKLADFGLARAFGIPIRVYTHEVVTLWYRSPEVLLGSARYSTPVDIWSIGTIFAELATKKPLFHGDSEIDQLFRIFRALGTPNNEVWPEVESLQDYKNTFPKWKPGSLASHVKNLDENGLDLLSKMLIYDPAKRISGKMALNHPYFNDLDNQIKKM
Chain of CDK1/cyclin B (P14635 whole entry partner, species assumed): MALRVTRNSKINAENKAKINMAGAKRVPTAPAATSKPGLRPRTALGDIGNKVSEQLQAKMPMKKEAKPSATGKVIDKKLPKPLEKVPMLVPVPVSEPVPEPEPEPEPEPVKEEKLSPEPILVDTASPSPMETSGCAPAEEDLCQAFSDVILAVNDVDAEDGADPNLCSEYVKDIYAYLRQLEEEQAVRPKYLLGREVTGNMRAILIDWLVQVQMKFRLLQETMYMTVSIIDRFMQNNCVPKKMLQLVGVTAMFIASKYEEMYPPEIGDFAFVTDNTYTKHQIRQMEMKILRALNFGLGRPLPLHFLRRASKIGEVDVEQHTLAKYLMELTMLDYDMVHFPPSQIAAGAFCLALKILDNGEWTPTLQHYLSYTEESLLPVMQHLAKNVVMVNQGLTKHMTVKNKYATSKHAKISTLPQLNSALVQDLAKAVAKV
Data set [2] has as its system human T-lymphoblastoid leukaemic cell line CEM. Kind of data set: In vitro cytotoxic activity (Calcein AM, 72 hours), CEM. The settings on record: read-out: Cytotoxicity IC50 CEM.
Data set [3] can be described thus: In vitro cytotoxic activity (Calcein AM, 72 hours), BJ. The settings on record: human, BJ normal fibroblasts.
Data set [4] concerns human malignant melanoma G 361. The data set can be described thus: In vitro cytotoxic activity (Calcein AM, 72 hours), G 361. The settings on record: G-361, 72 h, read-out: Cytotoxicity IC50 G361.
The subject of data set [5] is p53-responsive reporter pRGCΔfoslacZ in human melanoma cell line Arn8. The data set can be described thus: p53-dependent transcriptional activity, β-galactosidase reporter in Arn8 cells. To be noted: concentration inducing maximum of β-galactosidase activity (p53-responsive reporter).
The test system of data set [6] is human osteogenic sarcoma HOS. Kind of data set: In vitro cytotoxic activity (Calcein AM, 72 hours), HOS. The settings on record: read-out: Cytotoxicity IC50 HOS.
The subject of data set [7] is promyelocytic leukemia HL 60. The data set can be described thus: In vitro cytotoxic activity (Calcein AM, 72 hours), HL 60. The settings on record: Homo sapiens, HL-60, 72 h, read-out: Cytotoxicity IC50 HL60.
In data set [8] the test system is cervical carcinoma cells HELA. The data set can be described thus: In vitro cytotoxic activity (Calcein AM, 72 hours), HELA. The settings on record: Homo sapiens, read-out: Cytotoxicity IC50 HeLa.
Another data set addresses CDK9/cyclin T (Homo sapiens, UniProt P50750). Kind of data set: CDK inhibition assay, CDK9/cyclin T.

Chain of CDK9/cyclin T (P50750 whole entry, species assumed): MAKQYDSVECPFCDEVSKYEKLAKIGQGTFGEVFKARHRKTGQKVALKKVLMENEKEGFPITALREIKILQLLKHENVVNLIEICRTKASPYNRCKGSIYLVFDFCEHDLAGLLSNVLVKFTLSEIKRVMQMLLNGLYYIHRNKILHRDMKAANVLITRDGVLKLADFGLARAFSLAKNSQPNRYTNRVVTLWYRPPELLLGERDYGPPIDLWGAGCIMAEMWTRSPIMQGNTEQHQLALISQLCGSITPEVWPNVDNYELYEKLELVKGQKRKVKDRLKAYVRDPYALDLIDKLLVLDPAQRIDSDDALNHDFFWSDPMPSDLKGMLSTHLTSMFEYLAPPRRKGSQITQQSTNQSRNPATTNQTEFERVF
Chain of CDK9/cyclin T (O60563 whole entry partner, species assumed): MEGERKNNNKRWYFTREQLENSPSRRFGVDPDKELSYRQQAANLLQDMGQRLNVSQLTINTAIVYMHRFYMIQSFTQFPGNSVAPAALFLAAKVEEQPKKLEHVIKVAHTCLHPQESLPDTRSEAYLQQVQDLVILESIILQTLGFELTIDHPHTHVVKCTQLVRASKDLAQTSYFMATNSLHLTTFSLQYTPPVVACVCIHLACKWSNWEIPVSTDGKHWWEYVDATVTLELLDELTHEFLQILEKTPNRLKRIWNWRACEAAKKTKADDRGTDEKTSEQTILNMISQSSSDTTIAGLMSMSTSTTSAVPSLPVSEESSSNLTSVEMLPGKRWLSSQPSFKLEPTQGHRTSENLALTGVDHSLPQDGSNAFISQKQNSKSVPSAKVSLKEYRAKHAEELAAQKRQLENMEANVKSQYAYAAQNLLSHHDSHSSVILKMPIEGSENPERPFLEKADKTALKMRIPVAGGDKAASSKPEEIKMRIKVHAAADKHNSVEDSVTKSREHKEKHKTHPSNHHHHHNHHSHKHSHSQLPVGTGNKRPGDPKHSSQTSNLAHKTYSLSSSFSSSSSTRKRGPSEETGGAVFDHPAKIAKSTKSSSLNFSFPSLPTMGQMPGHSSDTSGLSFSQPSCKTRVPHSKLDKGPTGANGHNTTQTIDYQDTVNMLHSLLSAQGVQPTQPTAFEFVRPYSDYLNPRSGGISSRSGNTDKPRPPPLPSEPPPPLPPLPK

On to `CC(O)CNc1nc(NCc2ccccc2N)c2ncn(C(C)C)c2n1` (stereo not drawn) [Compound 104, 1-({6-[(2-aminobenzyl)amino]-9-isopropyl-9H-purin-2-yl}amino)propan-2-ol], for which the IC50 is 26 µM in data set [1]; 30 nM against CDK2/cyclin E; 15.4 µM in the data set on breast carcinoma MCF7; 90 nM against CDK1/cyclin B; 17 µM in data set [2]; 19 µM in data set [4]. Moreover, the IC50 was 31 µM in data set [6], 29 µM in data set [7], 15 µM in data set [8] and 6 nM against CDK9/cyclin T. Also, the IC50 at 72 h in data set [3] was above 167 µM. The “Max. β-Gal. Activtity Conc.” value in data set [5] is 12 µM.

In the case of `CC(C)n1cnc2c(NCc3ccccc3N)nc(NCC(C)(C)O)nc21` [Compound 108], the IC50 is 3 µM in [1]; 8 nM on CDK2/cyclin E; 1.2 µM with breast carcinoma MCF7; 20 nM on CDK1/cyclin B; 0.5 µM in data set [2]; 1.9 µM in data set [4]. The IC50 in [6] is 1 µM; in data set [7] it was 2.2 µM; in data set [8] it was 1 µM; against CDK9/cyclin T, 0.4 nM. Further, in [3], the IC50 at 72 h was above 167 µM. Further, the “Max. β-Gal. Activtity Conc.” value in data set [5] was 3 µM.

On to `CCC(CO)Nc1nc(NCc2cc(Cl)ccc2N)c2ncn(C(C)C)c2n1` (stereo not drawn) [Compound 118], for which the IC50 was 8.4 µM in data set [1]; 10 nM at CDK2/cyclin E; 1.8 µM with breast carcinoma MCF7; 80 nM at CDK1/cyclin B; 3.2 µM in [2]; 6 µM in data set [4]. Besides, the IC50 was 7.6 µM in data set [6], 5.4 µM in data set [7], 1.6 µM in data set [8] and 2 nM at CDK9/cyclin T. Also, in [3], the IC50 at 72 h was above 167 µM. Moreover, in [5], the “Max. β-Gal. Activtity Conc.” value was determined as 18 µM.

Turning to `Cc1cccc(CNc2nc(NC3CCC(N)CC3)nc3c2ncn3C(C)C)c1N` (stereo not drawn) [Compound 138], the IC50 in data set [1] is 9.5 µM; on CDK2/cyclin E, 70 nM; with breast carcinoma MCF7 it was 3.8 µM; at CDK1/cyclin B, 100 nM; in data set [2] it was 8.7 µM; in data set [4] it was 13 µM. The IC50 in data set [6] was 25 µM; in [7], 23 µM; in [8], 9.2 µM; at CDK9/cyclin T, 0.6 nM. The IC50 at 72 h in [3] is above 167 µM. For the same molecule, the “Max. β-Gal. Activtity Conc.” value in data set [5] is 2 µM.

Turning to `CCCn1cnc2c(NCc3ccccc3N)nc(NC3CCC(N)CC3)nc21` (stereo not drawn) [Compound 184], the IC50 in data set [1] was 24 µM; on CDK2/cyclin E it was 200 nM; in the data set with breast carcinoma MCF7, 8 µM; at CDK1/cyclin B it was 400 nM; in data set [2] it was 11 µM; in data set [4], 19 µM. Further, the half-maximal inhibitory concentration (IC50) was 32 µM in [6], 35 µM in data set [7], 17 µM in [8] and 0.9 nM against CDK9/cyclin T. In [3], the IC50 at 72 h is above 167 µM. The “Max. β-Gal. Activtity Conc.” value in [5] stood at 6 µM.

Regarding `CCCn1cnc2c(NCc3ccccc3N)nc(NC(CC)CO)nc21` (stereo not drawn) [Compound 187], the IC50 in data set [1] is 16 µM; against CDK2/cyclin E, 100 nM; in the data set with breast carcinoma MCF7, 4.3 µM; at CDK1/cyclin B it was 200 nM; in data set [2] it was 7.6 µM; in data set [4] it was 9 µM. For the same molecule, the IC50 is 12 µM in data set [6], 8.3 µM in data set [7], 4.5 µM in [8] and 0.7 nM against CDK9/cyclin T. In addition, the IC50 at 72 h in data set [3] was above 167 µM. Also, the “Max. β-Gal. Activtity Conc.” value in [5] amounted to 3 µM.

In the case of `Nc1ccccc1CNc1nc(NC2CCC(N)CC2)nc2c1ncn2C1CCCCC1` (stereo not drawn) [Compound 195], the IC50 in data set [1] is 38 µM; at CDK2/cyclin E it was 300 nM; in the data set on breast carcinoma MCF7 it was 12 µM; at CDK1/cyclin B, 600 nM; in data set [2], 11 µM; in data set [4], 14 µM. Also, the IC50 in [6] was 22 µM; in data set [7] it was 24 µM; in data set [8] it was 13 µM; on CDK9/cyclin T, 50 nM. Besides, in data set [3], the IC50 at 72 h was above 167 µM. The “Max. β-Gal. Activtity Conc.” value in data set [5] was determined as 22 µM.
